Laboratory results: US10513521B2, “Compositions and methods for inhibiting BMP” (The Brigham and Women's Hospital, Inc., priority 2014, dated 2019)
Residue numbers refer to the chain shown, from its start.

Legend:
ALK5 = target: T1, ALK5 (Homo sapiens, UniProt P36897); experiment: TR-FRET enzymatic ALK kinase assay, ALK5
T1 sequence (P36897 34-503): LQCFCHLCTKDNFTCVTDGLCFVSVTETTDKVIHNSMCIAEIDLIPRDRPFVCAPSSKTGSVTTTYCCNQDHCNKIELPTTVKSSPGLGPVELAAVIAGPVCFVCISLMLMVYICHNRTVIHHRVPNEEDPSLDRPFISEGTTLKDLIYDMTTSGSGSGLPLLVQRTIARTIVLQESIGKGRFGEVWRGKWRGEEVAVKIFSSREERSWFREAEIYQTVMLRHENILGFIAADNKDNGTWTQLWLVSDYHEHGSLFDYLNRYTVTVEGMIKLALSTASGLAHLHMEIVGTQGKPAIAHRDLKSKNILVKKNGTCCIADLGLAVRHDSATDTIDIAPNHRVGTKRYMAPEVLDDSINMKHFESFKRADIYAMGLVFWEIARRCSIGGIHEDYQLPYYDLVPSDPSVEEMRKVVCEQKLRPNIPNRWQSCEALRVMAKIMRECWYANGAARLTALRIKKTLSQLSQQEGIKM
Protocol: Six ALK kinase enzyme assays were developed for determination of compound activities on ALK1, ALK2, ALK3, ALK4, ALK5 and ALK6.
(§1) Briefly, the ALKs enzymatic assay was initiated by dispense 2.5 μl enzyme in 1× kinase reaction buffer. The assay plate was then added with compounds followed by incubation at room temperature for 10 minutes. Then 2.5 μl/well substrate was added.

ALK2 [1] = target: T2, ALK2 (Homo sapiens, UniProt Q04771); experiment: TR-FRET enzymatic ALK kinase assay, ALK2
T2 sequence (Q04771 21-509): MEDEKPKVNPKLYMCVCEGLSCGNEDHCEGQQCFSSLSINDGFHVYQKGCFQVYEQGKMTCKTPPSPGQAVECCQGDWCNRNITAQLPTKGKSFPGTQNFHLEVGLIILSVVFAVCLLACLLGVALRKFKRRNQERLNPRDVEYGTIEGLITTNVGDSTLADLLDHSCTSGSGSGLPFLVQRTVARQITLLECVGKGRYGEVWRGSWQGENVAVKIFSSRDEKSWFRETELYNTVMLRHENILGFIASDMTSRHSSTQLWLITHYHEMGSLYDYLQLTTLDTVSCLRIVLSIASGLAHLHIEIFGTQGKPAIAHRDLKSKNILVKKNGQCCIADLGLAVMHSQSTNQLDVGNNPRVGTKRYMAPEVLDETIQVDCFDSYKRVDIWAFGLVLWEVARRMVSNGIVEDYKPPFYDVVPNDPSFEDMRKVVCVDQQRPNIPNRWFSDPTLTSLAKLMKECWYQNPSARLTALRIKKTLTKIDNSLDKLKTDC
Protocol: as §1

ALK4 = target: T3, ALK4 (Homo sapiens, UniProt P36896); experiment: TR-FRET enzymatic ALK kinase assay, ALK4
T3 sequence (P36896 24-505): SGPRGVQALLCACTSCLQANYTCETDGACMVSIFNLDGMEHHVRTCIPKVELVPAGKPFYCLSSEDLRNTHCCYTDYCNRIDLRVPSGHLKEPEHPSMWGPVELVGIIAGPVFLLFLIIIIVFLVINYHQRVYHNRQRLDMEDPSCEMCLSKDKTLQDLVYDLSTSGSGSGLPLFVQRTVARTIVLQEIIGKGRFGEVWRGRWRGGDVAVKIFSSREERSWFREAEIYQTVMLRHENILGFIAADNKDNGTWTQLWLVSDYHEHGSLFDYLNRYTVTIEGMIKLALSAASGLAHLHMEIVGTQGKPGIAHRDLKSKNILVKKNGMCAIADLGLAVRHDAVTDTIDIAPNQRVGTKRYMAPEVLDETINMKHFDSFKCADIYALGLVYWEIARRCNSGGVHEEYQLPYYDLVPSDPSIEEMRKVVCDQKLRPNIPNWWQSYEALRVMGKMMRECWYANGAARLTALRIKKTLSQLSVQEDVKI
Protocol: as §1

ALK3 = ALK3 (Homo sapiens, UniProt P36894); experiment: TR-FRET enzymatic ALK kinase assay, ALK3
Protocol: as §1

ALK2 [2] = target: T4, ALK2 (Mus musculus, UniProt P37172); experiment: HTRF pSMAD1 cell-based ALK2 assay (C2C12 cells, BMP6 as agonist); conditions: cell-based assay, BMP6; read-out: Cell IC50 BMP6
T4 construct: The C2C12 cell line was selected for the measurement of ALK2 activity using BMP6 as the agonist; host or cells: C2C12
T4 sequence (P37172 21-509): T2 sequence (Q04771 21-509) with M1V, P10Q, L121I, D162E, P310S
Protocol: 2. HTRF Cell-Based ALK1 and ALK2 Assays in 384-Well Plate Format We have developed a cell based ALK1 kinase assay and a cell-based ALK2 assay. The BAOEC cell line was employed for the measurement of ALK1 activity using BMP9 as the agonist. The C2C12 cell line was selected for the measurement of ALK2 activity using BMP6 as the agonist. The kinase specificity was defined by the specific cell line and agonist. The kinase activity was determined by the status of SMD 1/5/8 phosphorylation stimulated by the agonist.
HyClone Fetal Bovine Serum was obtained from GE healthcare life sciences (Logan, Utah). BMP6 and BMP9 were purchased from R&D System. […] The compound plates and the white solid MB assay plates were purchased from Greiner Bio-one (Monroe, N.C.).
HTRF optimization experiments were performed in 384 well plate format. […] Pre-starved cells were then plated in 384 well plate in the starvation medium (containing in 0.1% FBS). After 4 hours, compounds were added to the assay plate and incubated for 30 minutes. The assay plate was then added with BMP6 for C2C12 cells or BMP9 for BAOEC cells and incubated for 30 minutes.
HTRF assay was performed to measure the status of SMAD 1 phosphorylation after stimulated with the agonist (Table 3). This HTRF phospho SMAD1 cell assay was developed and optimized for the homogenous detection of phospho SMAD 1 levels in cells. […] The plate was incubated at room temperature for overnight.

ALK1 = ALK1 (Homo sapiens, UniProt P37023); experiment: TR-FRET enzymatic ALK kinase assay, ALK1
Protocol: as §1

ALK6 = ALK6 (Homo sapiens, UniProt O00238); experiment: TR-FRET enzymatic ALK kinase assay, ALK6
ALK6, sequence (O00238 14-502): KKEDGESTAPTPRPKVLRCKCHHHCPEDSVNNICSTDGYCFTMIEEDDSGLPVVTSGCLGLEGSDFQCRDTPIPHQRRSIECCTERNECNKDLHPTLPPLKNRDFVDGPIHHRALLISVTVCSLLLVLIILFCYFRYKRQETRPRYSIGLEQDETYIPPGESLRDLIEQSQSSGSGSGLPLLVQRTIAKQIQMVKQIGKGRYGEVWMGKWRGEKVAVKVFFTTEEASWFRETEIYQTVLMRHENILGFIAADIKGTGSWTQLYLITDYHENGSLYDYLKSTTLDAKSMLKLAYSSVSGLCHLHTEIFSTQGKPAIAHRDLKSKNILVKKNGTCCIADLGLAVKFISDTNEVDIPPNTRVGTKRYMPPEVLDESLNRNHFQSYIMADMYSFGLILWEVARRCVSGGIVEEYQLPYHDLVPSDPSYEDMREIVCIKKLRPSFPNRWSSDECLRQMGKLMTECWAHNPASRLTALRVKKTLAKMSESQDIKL
Protocol: as §1

ALK3, sequence (P36894 24-532): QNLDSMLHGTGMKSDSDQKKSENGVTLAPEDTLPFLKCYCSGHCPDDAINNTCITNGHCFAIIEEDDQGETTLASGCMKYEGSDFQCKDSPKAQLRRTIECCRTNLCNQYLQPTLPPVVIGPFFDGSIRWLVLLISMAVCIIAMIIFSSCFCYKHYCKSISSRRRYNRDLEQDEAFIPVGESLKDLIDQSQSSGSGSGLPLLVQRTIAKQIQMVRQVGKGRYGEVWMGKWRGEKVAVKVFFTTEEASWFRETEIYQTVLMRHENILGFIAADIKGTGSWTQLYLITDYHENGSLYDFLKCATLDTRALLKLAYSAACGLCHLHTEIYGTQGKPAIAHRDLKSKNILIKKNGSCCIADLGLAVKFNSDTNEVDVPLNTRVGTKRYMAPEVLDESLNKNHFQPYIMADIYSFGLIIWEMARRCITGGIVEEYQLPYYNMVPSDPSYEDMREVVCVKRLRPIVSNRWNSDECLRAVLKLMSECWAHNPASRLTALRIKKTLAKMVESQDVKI
ALK1, sequence (P37023 22-503): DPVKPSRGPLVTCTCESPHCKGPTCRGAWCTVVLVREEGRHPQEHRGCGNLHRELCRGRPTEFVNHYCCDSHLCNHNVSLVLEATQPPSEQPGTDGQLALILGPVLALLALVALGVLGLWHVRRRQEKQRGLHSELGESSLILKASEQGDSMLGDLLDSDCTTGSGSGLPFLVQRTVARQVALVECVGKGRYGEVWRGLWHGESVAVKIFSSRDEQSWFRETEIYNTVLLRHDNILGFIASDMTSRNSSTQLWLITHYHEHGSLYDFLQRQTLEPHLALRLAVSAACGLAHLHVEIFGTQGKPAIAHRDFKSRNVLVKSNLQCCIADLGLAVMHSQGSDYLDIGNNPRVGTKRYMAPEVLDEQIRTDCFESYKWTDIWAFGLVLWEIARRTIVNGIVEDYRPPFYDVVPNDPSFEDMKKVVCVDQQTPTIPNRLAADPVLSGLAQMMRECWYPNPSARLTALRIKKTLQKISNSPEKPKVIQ

SMILES	IC50 (ALK5) [µM]	IC50 (ALK2 [1]) [µM]	IC50 (ALK4) [µM]	IC50 (ALK3) [µM]	IC50 (ALK2 [2]) [µM]	IC50 (ALK1) [µM]	IC50 (ALK6) [µM]
C[C@@H]1CNC[C@H](C)N1c1ccc(-c2cnc3c(-c4ccc([S+](N)(=O)[O-])c(C(F)(F)F)c4)cnn3c2)cc1 [Compound 53, 4-(6-(4-((2R,6S)-2,6-dimethylpiperazin-1-yl)phenyl)pyrazolo[1,5-a]pyrimidin-3-yl)-2-(trifluoromethyl)benzenesulfonamide]	> 10	0.38	> 10	> 10	0.316	2.9	> 10
O=[S+]([O-])(c1cccc(-c2cnn3cc(-c4ccc(CN5CCCCC5)cc4)cnc23)c1)C1CC1 [Compound 125, 3-(3-(cyclopropylsulfonyl)phenyl)-6-(4-(piperidin-1-ylmethyl)phenyl)pyrazolo[1,5-a]pyrimidine]	> 10	0.066	> 10	> 10	< 0.001	0.43	8.4
CS(=O)(=O)c1cccc(-c2cnn3cc(-c4ccc(C(F)(F)CN5CCCCC5)cc4)cnc23)c1 [Compound 120, 6-(4-(1,1-difluoro-2-(piperidin-1-yl)ethyl)phenyl)-3-(3-(methylsulfonyl)phenyl)pyrazolo[1,5-a]pyrimidine]	> 10	> 10	> 10	> 10	3.6	> 10	> 10
CS(=O)(=O)c1cccc(-c2cnn3cc(-c4ccc(C(F)(F)CN5CCNCC5)cc4)cnc23)c1 [Compound 122, 6-(4-(1,1-difluoro-2-(piperazin-1-yl)ethyl)phenyl)-3-(3-(methylsulfonyl)phenyl)pyrazolo[1,5-a]pyrimidine]	> 10	0.25	> 10	> 10	0.002	0.37	> 10
C[C@@H]1CNC[C@H](C)N1c1ccc(-c2cnc3c(-c4cccc(CO)c4)cnn3c2)cc1 [Compound 74, (3-(6-(4-((2R,6S)-2,6-dimethylpiperazin-1-yl)phenyl)pyrazolo[1,5-a]pyrimidin-3-yl)phenyl)methanol]	> 10	0.04	> 10	1.7	0.08	0.15	> 10
Cc1ccc([S+](=O)([O-])C(F)(F)F)cc1-c1cnn2cc(-c3ccc(N4[C@H](C)CNC[C@@H]4C)cc3)cnc12 [Compound 107, 6-(4-((2R,6S)-2,6-dimethylpiperazin-1-yl)phenyl)-3-(2-methyl-5-((trifluoromethyl)sulfonyl)phenyl)pyrazolo[1,5-a]pyrimidine]	> 10	6.6	> 10	> 10	2.13	> 10	> 10

The remaining lines, values ahead:

IC50 (ALK5) [µM]	IC50 (ALK2 [1]) [µM]	IC50 (ALK4) [µM]	IC50 (ALK3) [µM]	IC50 (ALK2 [2]) [µM]	IC50 (ALK1) [µM]	IC50 (ALK6) [µM]	SMILES
> 10	0.068	> 10	> 10	10	0.18	> 10	NS(=O)(=O)c1ccc(-c2cnn3cc(-c4ccc(C5(O)CCNCC5)cc4)cnc23)c2ccccc12 [Compound 66, 4-(6-(4-(4-hydroxypiperidin-4-yl)phenyl)pyrazolo[1,5-a]pyrimidin-3-yl)naphthalene-1-sulfonamide]
> 10	0.074	> 10	> 10	3	0.14	> 10	CN1CCN(c2ccc(-c3cnc4c(-c5ccc(S(N)(=O)=O)c6ccccc56)cnn4c3)cc2)CC1 [Compound 62, 4-(6-(4-(4-methylpiperazin-1-yl)phenyl)pyrazolo[1,5-a]pyrimidin-3-yl)naphthalene-1-sulfonamide]
> 10	0.036	6.1	0.37	0.09	0.073	0.95	C[C@@H]1CNC[C@H](C)N1c1ccc(-c2cnc3c(-c4cc(N)cc5ccccc45)cnn3c2)cc1 [Compound 58, 4-(6-(4-((2R,6S)-2,6-dimethylpiperazin-1-yl)phenyl)pyrazolo[1,5-a]pyrimidin-3-yl)naphthalen-2-amine]
> 10	0.2	> 10	> 10	0.95	0.68	> 10	CN(C)CCc1ccc(-c2cnc3c(-c4ccc(S(N)(=O)=O)c5ccccc45)cnn3c2)cc1 [Compound 68, 4-(6-(4-(2-(dimethylamino)ethyl)phenyl)pyrazolo[1,5-a]pyrimidin-3-yl)naphthalene-1-sulfonamide]
> 10	0.35	> 10	> 10	60	0.9	> 10	NS(=O)(=O)c1ccc(-c2cnn3cc(-c4ccc(C5(O)CCNCC5)nc4)cnc23)c2ccccc12 [Compound 56, 4-(6-(6-(4-hydroxypiperidin-4-yl)pyridin-3-yl)pyrazolo[1,5-a]pyrimidin-3-yl)naphthalene-1-sulfonamide]
> 10	0.19	> 10	> 10	4.73	0.8	> 10	Cc1ccc(-c2cnn3cc(-c4ccc(N5[C@H](C)CNC[C@@H]5C)cc4)cnc23)cc1S(N)(=O)=O [Compound 55, 5-(6-(4-((2R,6S)-2,6-dimethylpiperazin-1-yl)phenyl)pyrazolo[1,5-a]pyrimidin-3-yl)-2-methylbenzenesulfonamide]
